Measurements reported in PubChem BioAssay AID1159560 (GlaxoSmithKline (GSK), 2015).
The source made the active and inactive calls. The rule behind the calls is not given here.

System: Leishmania donovani growth inhibition
Assay: antileishmanial activity against L. donovani parasites (AID 1159560);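 note: parasites exposed to compound for 72 h before the viability read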

SMILES	IC50
Cn1c(CN2CCN(c3ncc(C(F)(F)F)cc3Cl)CC2)nc2ccncc21	5 µM
CC1(C)CCC(=Cc2ccc(Cl)cc2)CC1(O)Cn1ccnc1 (stereo not drawn)	2.5 µM
Cc1ccc(NC(=O)C(C)n2nc([N+](=O)[O-])c(Br)c2C)cc1Cl (stereo not drawn)	> 50 µM (inactive)
Cc1c([N+](=O)[O-])c(C(=O)Nc2sc3c(c2C#N)CCC(C)C3)nn1C (stereo not drawn)	25 µM
CC(=O)NCCNc1cc(-c2ccnc(Nc3cccc(Cl)c3)n2)ccn1	0.32 µM
c1ccc(CCNCc2cncc3nc(-c4cnccn4)n(C4CCCCC4)c23)cc1	> 50 µM (inactive)
CNC(=O)C1Cc2ccccc2N1C(=O)Cc1ccccc1 (stereo not drawn)	> 50 µM (inactive)
O=C(Nc1cccc(Cl)c1)Nc1ccc([N+](=O)[O-])cc1Cl	6.3 µM
COc1ccc(C2C3CCCCC3(O)CCN2CC(=O)Nc2ccc(Cl)cc2Cl)cc1 (stereo not drawn)	1.6 µM
CN(C)c1ccc(N)cc1CN(CC1CCCO1)S(C)(=O)=O (stereo not drawn)	4 µM
O=C(Nc1ccc(C(F)(F)F)cc1)Nc1cccc([N+](=O)[O-])c1	7.9 µM
NCC(Cc1ccccc1)NC(=O)c1cnc(-c2c[nH]c3ncccc23)s1 (stereo not drawn)	> 50 µM (inactive)
Cc1cc2ncn(-c3ccc([N+](=O)[O-])cc3C#N)c2cc1C	> 50 µM (inactive)
COc1cc(F)c2ncc(F)c(CCN3CC[C@H](NCc4cc5c(cn4)OCS5)[C@@H](O)C3)c2c1	25 µM
CNC(=O)C1Cc2ccccc2N1C(=O)COc1cccc(OC)c1 (stereo not drawn)	> 50 µM (inactive)
O=C(COc1ncnc2cc([N+](=O)[O-])ccc12)NC(=O)NC1CCCCC1	> 50 µM (inactive)
CCOc1ccc(CN(C)Cc2nc(N)nc(Nc3ccc(C)cc3)n2)cc1	32 µM
COc1cc(C(C)C)c(S(C)(=O)=O)cc1C(=O)N1CCN(c2ccccc2Cl)CC1	5 µM
COc1cccc(CN(C)Cc2nc(N)c3c(C)c(C)sc3n2)c1	32 µM
Cc1ncsc1CNc1cnc(-c2ccc3c(c2)OCCO3)c(-c2cnn(C)c2)c1	25 µM
O=C(Nc1nc2cc(Cl)ccc2o1)c1cccc(Cl)c1	0.4 µM
Cc1ccnc(NS(=O)(=O)c2ccc(NC(=O)c3ccc([N+](=O)[O-])s3)cc2)n1	4 µM
Cc1nn(-c2nc(N)nc(-c3ccccn3)n2)c(N)c1-c1ccccc1	5 µM
COc1ccccc1-c1c(C)[nH]c2nc(N)nc(C)c12	13 µM

SMILES	IC50
Cc1cc2cncn2c(C2CCCCN2C(=O)c2cccs2)n1 (stereo not drawn)	0.4 µM
NC(N)=Nc1nc(-c2ccc(NC(N)=NCCN3CCCC3)cc2)cs1	> 50 µM (inactive)
CS(=O)(=O)c1ccc(Nc2nccc(Nc3n[nH]c4ccc(F)cc34)n2)c(F)c1	13 µM
COc1ccc(CN2C(=O)C(O)(CC(=O)c3ccncc3)c3cc(Br)ccc32)cc1OC (stereo not drawn)	40 µM
CN(C)CCN(C)Cc1ccc(F)cc1NS(=O)(=O)c1ccc(Cl)c(Cl)c1	7.9 µM
CCCCn1nnnc1CSc1nc(C)cc(C)c1C#N	1.3 µM
CC(Cn1ccnc1)NC(=O)COc1ccc(Cl)c(Cl)c1 (stereo not drawn)	> 50 µM (inactive)
O=C(CN1CCN(S(=O)(=O)c2cccc([N+](=O)[O-])c2)CC1)Nc1ccc(Oc2ccccc2)cc1	4 µM
CCCNC(=O)Nc1cccc(-c2nc3ncccc3o2)c1	3.2 µM
CC(CCc1ccccc1)NC(=O)CN(Cc1ccccn1)Cc1ccccn1 (stereo not drawn)	7.9 µM
COc1ccc2ncc(F)c(CCN3CC[C@@H](NC(=O)c4cc5c(s4)CCC5)[C@@H](O)C3)c2n1	1 µM
Cn1nc([N+](=O)[O-])nc1Oc1ccc(C(=O)c2ccccc2)cc1	> 50 µM (inactive)
Cc1nc(C(=O)Nc2ccc3c(c2)OCO3)nn1-c1ccc(Cl)cc1	2.5 µM
CCn1c(NC(=O)Cc2ccc(F)cc2)nc2ccccc21	10 µM
N#Cc1cccc(Cc2cc(Nc3cc(C4CC4)[nH]n3)nc(N3CC[C@H]3C(N)=O)n2)c1	0.63 µM
O=c1oc2ccccc2n1C1CCN(Cc2ccccc2-c2cccnc2)CC1	> 50 µM (inactive)
CCC(=O)Nc1ccccc1C(=O)Nc1ccccn1	> 50 µM (inactive)
CCCc1cc(C(=O)Nc2ncc(-c3cccc(Br)c3)n2C)n[nH]1	6.3 µM
O=C(Nc1ccccc1)Nc1nc(-c2ccccn2)cs1	1.6 µM
O=C(NCC(c1cccnc1)N1CCc2ccccc2C1)C(=O)Nc1cccc(Cl)c1 (stereo not drawn)	1.3 µM
CCN(CC)S(=O)(=O)c1ccc(Cn2nc(C(=O)Nc3ccncn3)c3ccccc32)cc1	> 50 µM (inactive)
CCC(CC)C(=O)Nc1ccc(-c2nnc(-c3ccc(OC)cc3)o2)cc1	> 50 µM (inactive)
Clc1ccc(CN2CCN(C3=NCCN3)CC2)cc1Cl	> 50 µM (inactive)
Cn1nc(-c2ccc(NC(=O)Cc3ccccc3Cl)cc2)c2c(N)ncnc21	> 50 µM (inactive)
